For three compounds, inhibition results are on record in patent publication US20230131899A1, “INHIBITORS OF MICROBIALLY INDUCED AMYLOID” (Axial Therapeutics, Inc., priority 2020, published 2023).

For the test, the target named is T1, human α-synuclein (Homo sapiens, UniProt P37840).
T1 construct: the full-length gene for untagged human α-synuclein was inserted; made in house; host or cells: E. coli BL21(DE3), plasmid derived from pT7 or pET11a
Briefly: Cell-free Thioflavin T assay of α-synuclein aggregation (αSyn ThT Assay). The format is biochemical. The settings on record: αSyn 50 μM. In outline:
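Inhibition is reported as 100% minus background-corrected ThT signal relative to vehicle wells, taken at 36, 47, 48 or 72 h or the last read. Reactions held 50 μM recombinant α-synuclein, 20-100 μM compound, 20-40 μM ThT and 1% DMSO. Incubation was at 37° C., shaken, with a glass bead.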

The mark [1] stands for this setting: mean % inhibition of αSyn aggregation relative to DMSO control, compounds at 100 μM, read-out: αSyn ThT Assay % Inhibition.
Where [2] appears, read: compounds at 100 μM, class symbol, read-out: αSyn ThT Assay % Inhibition (activity range).

Molecules are shown by their SMILES. Like-named read-outs stand apart in the source and are kept apart here.

As a reminder, the inhibition is how much of the control response was suppressed.

Regarding `CNC(=O)CCCN1CC(C(=O)O)n2c(c(-c3cccc(C(F)(F)F)c3)c(Cc3cccc4ccccc34)cc2=O)S1(=O)=O` (stereo not drawn) [Compound 037, 2-(4-(methylamino)-4-oxobutyl)-8-(naphthalen-1-ylmethyl)-6-oxo-9-(3-(trifluoromethyl)phenyl)-3,4-dihydro-2H,6H-pyrido[1,2-e][1,2,5]thiadiazine-4-carboxylic acid 1,1-dioxide], the inhibition at 100 µM by setting is: under setting [1], 36%; under setting [2], 31 to 60%.

Regarding `O=C(O)C1CN(CCCCCO)c2c(-c3cccc(C(F)(F)F)c3)c(Cc3cccc4ccccc34)c(Cl)c(=O)n21` (stereo not drawn) [Compound 199, 6-chloro-1-(5-hydroxypentyl)-7-(naphthalen-1-ylmethyl)-5-oxo-8-(3-(trifluoromethyl)phenyl)-1,2,3,5-tetrahydroimidazo[1,2-a]pyridine-3-carboxylic acid], the inhibition at 100 µM (class symbol, compounds 100 μM, read-out: αSyn ThT Assay % inhibition, activity range) fell in the range of 11 to 30% and the inhibition at 100 µM (mean percent inhibition relative to DMSO control, compounds 100 μM, read-out: αSyn ThT Assay % inhibition) worked out at 29%.

For `O=C(O)C1CSc2c(-c3cccc(C(F)(F)F)c3)c(Cc3cccc4ccccc34)c(CO)c(=O)n21` (stereo not drawn) [Compound 057, 6-(hydroxymethyl)-7-(naphthalen-1-ylmethyl)-5-oxo-8-(3-(trifluoromethyl)phenyl)-2,3-dihydro-5H-thiazolo[3,2-a]pyridine-3-carboxylic acid], the inhibition at 100 µM under setting [1] worked out at 54% and the inhibition at 100 µM under setting [2] lay within 31 to 60%.
